Source: PubChem BioAssay AID238 (DTP/NCI, 2004)
Values joined by “and” are separate entries in the source; they are usually repeats but may differ in a detail not shown here. Equal entries are not always repeated. Inconclusive results and toxic doses are left out.

System: CAF1 mice, leiomyosarcoma No.2 ip, survival T/C%
Experiment: NCI In Vivo Anticancer Drug Screen. Data for tumor model Leiomyosarcoma (No. 2) (intraperitoneal) in CAF1 mice
Conditions: endpoint: mean survival time, higher = longer survival
Description: The antitumor activity of compounds was measured in mice bearing transplantable tumors. Survival or tumor size were measured and the results are expressed as the measurement made in the treated group (T) divided by the measurement made in the vehicle treated control group (C). The tumor model used in this assay is Leiomyosarcoma (No. 2) (intraperitoneal) in CAF1 mice

[1] = dose: 25.0 mg/kg/injection, schedule: Q01DX010 (ip), vehicle: saline
[2] = dose: 50.0 mg/kg/injection, schedule: Q01DX010 (ip), vehicle: saline
[3] = dose: 100.0 mg/kg/injection, schedule: Q01DX010 (ip), vehicle: saline
[4] = dose: 200.0 mg/kg/injection, schedule: Q01DX010 (ip), vehicle: saline
[5] = dose: 400.0 mg/kg/injection, schedule: Q01DX010 (ip), vehicle: saline
[6] = dose: 2.5 mg/kg/injection, schedule: Q01DX010 (ip), vehicle: saline
[7] = dose: 10.0 mg/kg/injection, schedule: Q01DX010 (ip), vehicle: saline
[8] = dose: 5.0 mg/kg/injection, schedule: Q01DX010 (ip), vehicle: saline
[9] = dose: 62.5 mg/kg/injection, schedule: Q01DX010 (ip), vehicle: saline
[10] = dose: 20.0 mg/kg/injection, schedule: Q01DX010 (ip), vehicle: saline

## Nc1nc2n[nH]nc2c(=O)[nH]1
dose: 25.0 mg/kg/injection, schedule: Q01DX010 (ip), vehicle: alkali diluted with saline
  T/C: 188 % of control and 225 % of control
[1]
  T/C: 253 % of control
dose: 50.0 mg/kg/injection, schedule: Q01DX010 (ip), vehicle: alkali diluted with saline
  T/C: 180 % of control and 250 % of control
[2]
  T/C: 186 % of control
dose: 100.0 mg/kg/injection, schedule: Q01DX010 (ip), vehicle: alkali diluted with saline
  T/C: 190 % of control and 246 % of control
dose: 200.0 mg/kg/injection, schedule: Q01DX010 (ip), vehicle: alkali diluted with saline
  T/C: 185 % of control

## CC(=O)O[C@]1(C(C)=O)CC[C@H]2[C@@H]3C[C@H](C)C4=CC(=O)C=C[C@]4(C)[C@@]3(F)[C@@H](O)C[C@@]21C
dose: 12.5 mg/kg/injection, schedule: Q01DX010 (sc), vehicle: steriod suspending solution
  T/C: 96 % of control
dose: 25.0 mg/kg/injection, schedule: Q01DX010 (sc), vehicle: steriod suspending solution
  T/C: 104 % of control
dose: 50.0 mg/kg/injection, schedule: Q01DX010 (sc), vehicle: steriod suspending solution
  T/C: 88 % of control
dose: 100.0 mg/kg/injection, schedule: Q01DX010 (sc), vehicle: steriod suspending solution
  T/C: 88 % of control

## CN(C)/N=N/c1nc[nH]c1C(N)=O
[1]
  T/C: 109 % of control
[2]
  T/C: 109 % of control and 113 % of control
[3]
  T/C: 118 % of control
[4]
  T/C: 163 % of control
[5]
  T/C: 86 % of control

## N#CCSc1ncnc2nc[nH]c12
dose: 15.0 mg/kg/injection, schedule: Q01DX010 (ip), vehicle: saline
  T/C: 86 % of control and 113 % of control
dose: 30.0 mg/kg/injection, schedule: Q01DX010 (ip), vehicle: saline
  T/C: 118 % of control and 120 % of control
dose: 60.0 mg/kg/injection, schedule: Q01DX010 (ip), vehicle: saline
  T/C: 113 % of control
dose: 120.0 mg/kg/injection, schedule: Q01DX010 (ip), vehicle: saline
  T/C: 118 % of control

## N#[N+]c1cnc([O-])[nH]c1=O
[6]
  T/C: 213 % of control
[7]
  T/C: 93 % of control

## O=C(O)c1[nH]c(=O)[nH]c(=O)c1F
dose: 1.25 mg/kg/injection, schedule: Q01DX010 (ip), vehicle: saline
  T/C: 112 % of control
[6]
  T/C: 112 % of control
[8]
  T/C: 120 % of control
[7]
  T/C: 108 % of control

## CS(=O)(=O)OCCC(=O)N1CCN(C(=O)CCOS(C)(=O)=O)CC1
dose: 12.5 mg/kg/injection, schedule: Q01DX010 (ip), vehicle: saline
  T/C: 172 % of control
[1]
  T/C: 224 % of control
[2]
  T/C: 232 % of control
[3]
  T/C: 304 % of control

## O=c1cn[nH]c(=O)[nH]1
[9]
  T/C: 114 % of control
dose: 125.0 mg/kg/injection, schedule: Q01DX010 (ip), vehicle: saline
  T/C: 90 % of control and 106 % of control
dose: 250.0 mg/kg/injection, schedule: Q01DX010 (ip), vehicle: saline
  T/C: 92 % of control and 107 % of control
dose: 500.0 mg/kg/injection, schedule: Q01DX010 (ip), vehicle: saline
  T/C: 96 % of control

## S=P(N1CCOCC1)(N1CC1)N1CC1
[6]
  T/C: 96 % of control and 104 % of control
[8]
  T/C: 116 % of control and 117 % of control
[7]
  T/C: 153 % of control and 179 % of control
[10]
  T/C: 164 % of control

## O=c1[nH]cc(F)c(=O)[nH]1
[8]
  T/C: 195 % of control
[7]
  T/C: 213 % of control and 227 % of control
[10]
  T/C: 181 % of control and 186 % of control

## C=C1C[C@H]2[C@@H]3C=C(C)C4=CC(=O)CC[C@]4(C)[C@H]3CC[C@]2(C)[C@@]1(OC(C)=O)C(C)=O
dose: 62.5 mg/kg/injection, schedule: Q01DX010 (sc), vehicle: steriod suspending solution
  T/C: 113 % of control
dose: 125.0 mg/kg/injection, schedule: Q01DX010 (sc), vehicle: steriod suspending solution
  T/C: 102 % of control
dose: 250.0 mg/kg/injection, schedule: Q01DX010 (sc), vehicle: steriod suspending solution
  T/C: 89 % of control
dose: 500.0 mg/kg/injection, schedule: Q01DX010 (sc), vehicle: steriod suspending solution
  T/C: 94 % of control

## CCCCNc1ncnc2c1cnn2C
dose: 15.6 mg/kg/injection, schedule: Q01DX010 (ip), vehicle: saline
  T/C: 92 % of control
dose: 31.3 mg/kg/injection, schedule: Q01DX010 (ip), vehicle: saline
  T/C: 89 % of control and 103 % of control
[9]
  T/C: 90 % of control and 112 % of control

## O=c1cnn(C2OC(CO)C(O)C2O)c(=O)[nH]1 (stereo not given)
[4]
  T/C: 104 % of control and 107 % of control
[5]
  T/C: 104 % of control and 107 % of control
dose: 800.0 mg/kg/injection, schedule: Q01DX010 (ip), vehicle: saline
  T/C: 107 % of control and 112 % of control
